Results on 2 compounds are retold here after PMC11995222, “Synthesis and Evaluation of Thiazolidinone-Isatin Hybrids for Selective Inhibition of Cancer-Related Carbonic Anhydrases” (ACS Medicinal Chemistry Letters, 2025).

The nature of data set [1]: Cellular toxicity assay (MTT). The format is cell-based, human. The settings on record: human, HuH-7 cells, MTT.
Another data set relates to HuH-7 cells. Nature of the data set: Cellular toxicity assay (MTT). The format is cell-based, human. The settings on record: HuH-7 cells, 24, 48 and 72 h, up to 100 µM.

Entries after “also recorded” stand apart in the source; their conditions may differ.

For the compound `CC[C@@]1(O)C(=O)OCc2c1cc1n(c2=O)Cc2cc3ccccc3nc2-1` [Camptothecin, reference compound], in data set [1] (24h), the CC50 at 24 h is greater than 10 µM. The same compound gave a CC50 at 48 h in data set [1] (48h) of 8.5 ± 0.9 µM. In data set [1] (72h), this compound yielded a CC50 at 72 h of 500 ± 20 nM.
With `NS(=O)(=O)c1ccc(/N=C2\S/C(=C3\C(=O)Nc4c(F)cccc43)C(=O)N2C2CC2)cc1` [compound 3h], in the data set with HuH-7 cells, the “toxicity (in words)” value is on record as “weak toxicity; also recorded: nontoxic”. Besides, the CC50 at 24 h in data set [1] (24h) was greater than 100 µM. Also, the viability at 24 h, 100 µM in data set [1] (24h, highest concentration (100 µM), read-out: Percentage of HuH-7 cells viability at the highest compound concentration tested, 24h) was 70%. Also, the CC50 at 48 h in data set [1] (48h) was greater than 100 µM. In addition, in data set [1] (48h, highest concentration (100 µM), read-out: Percentage of HuH-7 cells viability at the highest compound concentration tested, 48h), the viability at 48 h, 100 µM worked out at 60%. For the same compound, the CC50 at 72 h in data set [1] (72h) was greater than 100000 nM. The viability at 72 h, 100 µM in data set [1] (72h, highest concentration (100 µM), read-out: Percentage of HuH-7 cells viability at the highest compound concentration tested, 72h) was 60%.

One may read the CC50 as the concentration giving 50% cytotoxicity. Lower therefore signals greater toxicity to the cells.
